# Assay results published in ChEMBL document CHEMBL3507680, “University of Dundee, Gates Library screen for HepG2 cell viability”.
# Assay: Human HepG2 cell viability assay in 384 well format
# Type: toxicity, cell-based
# Design: dose 125 nL, time 70.5 hour; concentration not given beside the values
# Details: HepG2 cells, read-out: Inhibition
row,Structure (SMILES),cytotoxicity at 70.5 h
1,Cc1cc(CC(=O)N2CCN(C)[C@@H]3CS(=O)(=O)C[C@@H]32)ccc1F,-4.31%
2,Cc1cc(C)n(CCCN(C)Cc2cn[nH]c2-c2ccc(F)cc2)n1,-9.49%
3,COc1ccc(C(=O)NCc2cccnc2N2CCOCC2)o1,-0.423%
4,O=C(O)c1cc2n(n1)CCCN(C(=O)CCc1c[nH]c3ccccc13)C2,-16.4%
5,CC(=O)c1cc(CN2CCCC23CCN(c2ccccn2)CC3)cs1,-19.2%
6,Cc1cc(C2CCC2)nc(NCC(C)(C)N2CCCC2)n1,-16.9%
7,COc1cccc2c1OCC(CNC(=O)Cn1ccnc1C)C2 (stereo unspecified),-0.227%
8,C/C=C(\C)CN1C[C@H](NC(=O)c2cc[nH]c2C)[C@@H](C2CC2)C1,10.6%
9,CC(C)n1cc(CN(Cc2ccsc2)CC2CCCO2)cn1 (stereo unspecified),-1.43%
10,Cc1nc(O)cc(CN2C[C@H](NS(=O)(=O)N(C)C)[C@@H](C3CC3)C2)n1,-3.51%
11,CNc1cc(C(=O)N2CCC3(CC2)Nc2ccccc2NC3=O)ccn1,-4.39%
12,O=C(NCCc1ccc(Cl)cc1)c1coc(CN2CCOCC2)c1,-5.77%
13,O=C(CCN1CCCC1)N1CC[C@@H](c2ccc3ccccc3c2)[C@H](O)C1,-21%
14,CCCc1nnc2sc(C3CCS(=O)(=O)CC3)nn12,-10.2%
15,CC(=O)N1CCN(C(=O)c2snnc2C)[C@H]2CS(=O)(=O)C[C@H]21,-6.51%
16,COc1cc(C)ccc1OCCN1CC[C@@]2(O)CCNC[C@H]2C1,-4.21%
17,CNc1nc2c(c(C(=O)N3CCCC3)n1)CN(C(=O)c1cccs1)CC2,5.33%
18,CCC[C@H]1CN(S(C)(=O)=O)C[C@@H]1NC(=O)Cc1ccc(F)cc1C,-1.4%
19,O=c1[nH]nc(CCCN2CCOCC2)n1Cc1cccc(F)c1,-2.64%
20,Cc1nc(CCNC(=O)CC2CCN(C(C)C)CC2)sc1Cl,45.7%
21,COc1ccc(CN2CCSCC2)c(OC)c1,-6.31%
22,Cc1cccc2cc(C(=O)N3CCSCC3)n(C)c12,-3.37%
23,OCCCc1nncn1-c1cccc(C(F)(F)F)c1,-1.23%

row,Structure (SMILES),cytotoxicity at 70.5 h
1,O=C(c1ccc(=O)[nH]c1)N1CCCC2(C=Cc3ccccc3O2)CC1 (stereo unspecified),-3.22%
2,COCCCN1CC2(CCN(C(=O)Cc3csc(C)n3)CC2)CC1=O,-7.77%
3,O=C1CC(NCc2ccncc2)CN1CCc1cccc(Cl)c1 (stereo unspecified),-6.56%
4,Cc1ccc2nc(-c3cnc(N)nc3)cc(C(=O)N(C)C)c2c1,1.63%
5,COCC(=O)N1C[C@H]2CNC[C@@]2(C(=O)NCc2nc(C)cc(C)n2)C1,-7.28%
6,COc1ccc(-c2cccc(-c3ccn(CC4COCCO4)n3)c2)nn1 (stereo unspecified),-5.24%
7,CCN(Cc1noc(C2CCC2)n1)C(=O)c1cnc2ccccc2c1,13.1%
8,CCc1noc(C)c1C(=O)N1CCC2(CCCN(CC(C)(C)C)C2=O)C1 (stereo unspecified),-5.92%
9,CC(=O)N1CC2(CCN(c3nccc4ccccc34)CC2)CC1C(=O)O (stereo unspecified),-9.28%
10,CC(C)N1CCOC(CC(=O)N2CCCN(Cc3cccs3)CC2)C1 (stereo unspecified),-11.6%
11,CCN1CCCC(CN(C)c2nccc(-c3ccc(C)nc3C)n2)C1 (stereo unspecified),-1.39%
12,OCc1ccc(CN(CCCn2ccnc2)Cc2cccnc2)o1,-8.65%
13,COCCN1CCC(CNC(=O)Nc2ccc(F)c(Cl)c2)C1 (stereo unspecified),24.8%
14,CCc1cc(NCC(O)CN2CCCC2)ncn1 (stereo unspecified),21.2%
15,O=C1O[C@@H]2CN(Cc3cc4ccccc4s3)C[C@@H]2N1Cc1ccccn1,-6.44%
16,c1cc(-c2nccn2CCc2nc3c(s2)CCC3)ccn1,12.9%
17,NCC1Cc2cc(Cl)cc(-c3cncc(C(=O)N4CCCCC4)n3)c2O1 (stereo unspecified),-6.78%
18,Cc1noc(C)c1C(=O)N1CCCC(c2nccn2Cc2cscn2)C1 (stereo unspecified),-5.18%
19,O=C(NCc1ccc(F)cc1F)C(c1cccnc1)N1CCOCC1 (stereo unspecified),-0.235%
20,c1nc(N2CCCC2)ncc1CN1CCCC(CN2CCCCC2)C1 (stereo unspecified),24.4%
21,CC(C)[C@H]1CN(c2ccncc2)C[C@@H]1NS(=O)(=O)N(C)C,-4.27%
22,Cc1cc(N[C@@H](CO)c2ccccc2)n2nc(C)c(C)c2n1,-2.95%
23,CCCN(Cc1nccn1C)C(=O)C(CC)Nc1cccc(OC)c1 (stereo unspecified),-3.17%

row,Structure (SMILES),cytotoxicity at 70.5 h
1,Cc1nc(CN2CCCC23CCN(c2nc4ccccc4s2)CC3)co1,-12.9%
2,CC(=O)N1CCN(Cc2cccc3c2sc2ccccc23)CC(O)C1 (stereo unspecified),-5.85%
3,CSc1ncc(CNC(C)c2cnn(-c3ccc(F)cc3F)c2C)cn1 (stereo unspecified),-2.86%
4,CN1CCn2nc(-c3nc4ccccc4n3C)cc2C1,32.2%
5,COCCN(C)C(C(=O)O)c1cc(Cl)ccc1OC (stereo unspecified),7.55%
6,O=C(c1cn(CC(=O)N2CCCC2)c2ccccc12)C1CC1,-2.27%
7,CCc1cc(N(C)Cc2nonc2C)nc(N(C)C)n1,7.36%
8,Cc1nc(CNCc2ccc(OC34CCCN(CC3)C4)cc2)n[nH]1 (stereo unspecified),-5.4%
9,CN(Cc1cnc(N)nc1)CC1CCCN(CCc2ccc(Cl)cc2)C1 (stereo unspecified),8.66%
10,CC[C@@H](CO)NC(=O)c1cc(COc2ccc(OC)cc2Cl)[nH]n1,-3.92%
11,NC(=O)c1ccccc1-n1cc(-c2cccc(C(=O)O)c2)cn1,-9.16%
12,CCNc1ccnc(NCc2cn3nc(C)sc3n2)n1,-15.7%
13,Fc1cc(Cl)cnc1N1CCCC(c2nccn2CC2CC2)C1 (stereo unspecified),22.7%
14,COCCN(Cc1sccc1C)C(=O)C1CCN(C(C)C)CC1,-2.9%
15,Cc1cccc2cc(CN3CCC(N4CCCC4)CC3)c(=O)[nH]c12,-6.75%
16,c1ccc(-c2nc(CCNC3CCOC4(CCOCC4)C3)no2)cc1 (stereo unspecified),-8.69%
17,NCCc1nc(N[C@@H](CO)c2ccccc2)c2ccccc2n1,7.85%
18,CN(C)c1ncnc2c1CCN(S(=O)(=O)c1ccccc1C(F)(F)F)C2,1.88%
19,CC(C)(C)C(=O)N1CCC(n2cc(C3(O)CCCC3)nn2)CC1,-9.39%
20,CCc1ncc(C(=O)N2CCN(C(=O)COc3ccccc3)CC2)cn1,-3.1%
21,Cc1nccn1CCC1CCN(c2ccncn2)CC1,-2.98%
22,CN1C[C@@H](NC(=O)C(C)(C)C)C[C@H]1C(=O)NCc1ncc[nH]1,-8.54%
23,Cc1cccc2[nH]c(C3CCN(C(=O)c4c[nH]c(=O)[nH]c4=O)CC3)nc12,-7.98%

row,Structure (SMILES),cytotoxicity at 70.5 h
1,Cc1c(C(C)NC(=O)Nc2ccc(F)cc2F)cnn1C (stereo unspecified),-3.54%
2,OCC1CCCCN1CCCNCc1cc(O)c2cc(F)ccc2n1 (stereo unspecified),-4.1%
3,Cc1nonc1CN(C)c1nc(-c2cccnc2)nc2c1CCNC2,0.678%
4,COCCN1CCC(CN(CC2CCCO2)C(=O)Cn2cccn2)CC1 (stereo unspecified),-4.66%
5,Cc1nc(-c2cccc(N3CCC(N4CCCC4)CC3)c2)cs1,13.8%
6,O=C(c1ccc2sccc2c1)N1CCC(C(=O)O)(n2cccn2)CC1,-6.51%
7,COc1cnc(N2CCCN(Cc3ccc(F)cc3)CC2)nc1,4.55%
8,CC(C)=CCN1Cc2nnc(C3CCOCC3)n2C(Cc2c[nH]cn2)C1 (stereo unspecified),-5.43%
9,Cc1nccnc1N1Cc2cnn(Cc3ccc(F)cc3)c2C1,-0.0825%
10,CCNc1ccc(-c2ccnc3c2ccn3C)nn1,-5.15%
11,CCC(C)N(CC)C(=O)c1ccc2[nH]nnc2c1 (stereo unspecified),-6.36%
12,CCn1cc(CN(C)Cc2cnn(-c3ccc(F)cc3)c2)cn1,13.5%
13,c1coc(-c2nc(CNC3CCC4(CCNCC4)CC3)no2)c1,-3.78%
14,Cc1nccn1C1(C(=O)O)CCN(Cc2ccc3c(c2)OCCO3)CC1,-3.95%
15,O=C(c1ccc(S(=O)(=O)NCc2ccon2)cc1)N1CCNCC1,-6.36%
16,CN(C)S(=O)(=O)N1CCOCC1CC(=O)NCCOc1ccccc1 (stereo unspecified),-15.5%
17,O=C(CC1COCCN1)N1CCCN(C2Cc3ccccc3C2)CC1 (stereo unspecified),-3.92%
18,Cc1cc(C2CCC2)nc(N(C)Cc2ncccc2C)n1,2.14%
19,COc1cccc(-c2n[nH]c3c2CN(C(=O)c2ccncc2)CC3)c1,-5.87%
20,COc1cc(C)cc(-c2nc3c([nH]2)CCNC3)c1OC,9.79%
21,O=C(NC1CC1)C1CNCCN1C(=O)CCc1ccc2c(c1)OCO2 (stereo unspecified),-3.72%
22,O=C(c1cc2c([nH]c1=O)CCC2)N1CCCCC1c1cccc(F)c1 (stereo unspecified),2.02%
23,COCCC(=O)N1CCCC(CCc2ccc(F)c(F)c2)C1 (stereo unspecified),-9.08%

row,Structure (SMILES),cytotoxicity at 70.5 h
1,O=C(O)C(c1ccc(Cl)c(F)c1)N1CCN(Cc2ccccn2)CC1 (stereo unspecified),-2.57%
2,CCCc1cc(C(=O)N2C[C@H]3CC=C(C)C[C@H]3C2)ccn1,-8.24%
3,N#Cc1cccc(C(=O)N2CCCC(C(=O)CCc3ccccc3)C2)c1 (stereo unspecified),-5.64%
4,O=C1CCCN1CCN1CC[C@@]2(O)CCN(c3ncccn3)C[C@H]2C1,15.5%
5,COc1ccc([C@@H]2CN(Cc3cccnc3N)C[C@H]2N(C)C)cc1,-2.88%
6,CCc1nc2c(NCC3COc4ccccc4C3)ncnc2o1 (stereo unspecified),-1.81%
7,OCC1(O)CCN(Cc2ccc(-c3cc[nH]n3)s2)CC1,6.86%
8,Cc1c(-c2c(-c3ccccc3)ncn2[C@H](CO)C(=O)O)cnn1C,-7.01%
9,CCC[C@@H]1CN(Cc2c[nH]c(CC3CCCC3)n2)C[C@H]1C(=O)O,-7.4%
10,CC(C)CC(O)C1CCN(C(=O)c2ccc(C(C)C)[nH]c2=O)CC1 (stereo unspecified),18.9%
11,COC(=O)c1cc(CN2CCN(c3nc(C)cnc3C)CC2)ccc1O,-1.95%
12,Cc1nc[nH]c1CN(C)CC1CCCN(CCc2ccc(Cl)cc2)C1 (stereo unspecified),20.5%
13,Cc1ccc(-c2cn[nH]c2C2CCCN(c3nccc(N)n3)C2)cc1 (stereo unspecified),-1.62%
14,CCn1ncnc1C1CC(=O)NCc2nc3ccccn3c21 (stereo unspecified),-3.8%
15,CN(C)C(=O)N1CCN(Cc2ccccc2)[C@@H]2CS(=O)(=O)C[C@@H]21,-7.42%
16,CCc1ccc(CN2CCCC(CO)(CCOC)C2)cc1 (stereo unspecified),-8.83%
17,CC(C)CN1CCCn2nc(CNC(=O)CCCc3cn[nH]c3)cc2C1,-9.85%
18,CCc1nccc(CN2CCCC(c3nn(C)c(=O)n3CC)C2)n1 (stereo unspecified),-3.33%
19,Nc1nccc(N2CCC(Cc3ccccc3Cl)(C(=O)O)CC2)n1,-2.75%
